We go through five substances from article PMC2120771 (The Journal of Cell Biology, 1996).

The subject of one assay is profilin-VASP. The settings on record: in vitro; ref Reinhard et al., 1995; cited from earlier work.
In a further assay the test system is Shigella flexneri M90T. Briefly: Shigella intracellular motility in PtK2 cells before and after microinjection. The format is cell-based.
Another assay has as its system Listeria monocytogenes. The settings on record: microinjection; ref Southwick and Purich, 1995; cited from earlier work.
The mark [1] stands for this setting: intracellular concentration 10 μM.
The mark [2] stands for this setting: intracellular 80 nM, 2-4 min after microinjection.

As for (GPPPPP)3 [VASP peptide], in the assay on profilin-VASP, the “Dissociation of profilin from VASP” value is recorded as “can dissociate profilin from VASP in vitro”. Besides, the “Intracellular concentration that inhibits Shigella movement” value with Shigella flexneri M90T (PtK2 cells, microinjection, estimated intracellular concentration) is 10 µM. The substance further showed a Postinjection/preinjection velocity in the assay with Shigella flexneri M90T (setting [1]) of 0.15. Moreover, the Postinjection velocity with Shigella flexneri M90T (intracellular concentration 10 μM, mean, SD) is listed as 0.02 - 0.05 μm/s. The “Effect on Shigella motility” value in the assay with Shigella flexneri M90T (intracellular concentrations 2 and 6 μM (Fig. 7 B), large standard deviations) is reported as “variable inhibition”.
YDPAPPPPPP [mosquito oostatic factor]: the “Effect on Listeria locomotion” value in the assay on Listeria monocytogenes is listed as “inhibits Listeria locomotion”.
In the assay with Shigella flexneri M90T (setting [1]), “VKSKIGSTDNIKYZPKGG [MAP-2 peptide, reference compound]” had a Postinjection/preinjection velocity of 1.00.
With poly-L-proline [reference compound], the “Effect on Shigella velocity” value in the assay with Shigella flexneri M90T (increasing intracellular concentrations (Fig. 8 A), each point mean of 20-40 velocity measurements) was “dose-dependent slowing of bacterial velocity”.
As to CFEFPPPPTDE [Act A peptide], the “Time after injection at which bacterial motility ceases” value in the assay on Shigella flexneri M90T (800 nM needle concentration, estimated intracellular concentration 80 nM) is reported as at most 30 s. The “Time after injection at which phase-dense actin tails disappear” value in the assay on Shigella flexneri M90T (estimated intracellular concentration 80 nM) was at most 30 s. Moreover, in the assay on Shigella flexneri M90T (setting [2]), the “Fraction of bacteria that resume migration” value is listed as “One quarter” and the “Rate of resumed movement relative to velocities measured before injection” value was 25-30%. Further, in the assay with Shigella flexneri M90T (intracellular concentration 8 nM (Fig. 5 B)), the “Effect on Shigella intracellular movement” value is “fails to inhibit”. This substance also had a Postinjection/preinjection velocity in the assay with Shigella flexneri M90T (intracellular concentration 80 nM) of 0.07. In the assay on Shigella flexneri M90T (intracellular concentrations 400-800 nM (Fig. 5 B)), the “Effect on Shigella intracellular movement” value is listed as “consistently block intracellular movement”.
